Measurements from patent US20210369680A1, “METHODS OF TREATING DISEASES AND DISORDERS RESULTING FROM BETA CORONAVIRUS INFECTION” (T3D Therapeutics, Inc., priority 2020, published 2021).
“And” between values parts separate entries of the source, which are not always exact repeats. Equal values may be shown once.

Assays:
[1] = biological target: T1, human PPARα (Homo sapiens, UniProt Q07869); test: Human PPAR activation, transient transfection study in transfected CV-1 cells; format: cell-based
T1 construct: expressed in transfected cells; host or cells: CV-1 cells
T1 sequence (Q07869 1-468): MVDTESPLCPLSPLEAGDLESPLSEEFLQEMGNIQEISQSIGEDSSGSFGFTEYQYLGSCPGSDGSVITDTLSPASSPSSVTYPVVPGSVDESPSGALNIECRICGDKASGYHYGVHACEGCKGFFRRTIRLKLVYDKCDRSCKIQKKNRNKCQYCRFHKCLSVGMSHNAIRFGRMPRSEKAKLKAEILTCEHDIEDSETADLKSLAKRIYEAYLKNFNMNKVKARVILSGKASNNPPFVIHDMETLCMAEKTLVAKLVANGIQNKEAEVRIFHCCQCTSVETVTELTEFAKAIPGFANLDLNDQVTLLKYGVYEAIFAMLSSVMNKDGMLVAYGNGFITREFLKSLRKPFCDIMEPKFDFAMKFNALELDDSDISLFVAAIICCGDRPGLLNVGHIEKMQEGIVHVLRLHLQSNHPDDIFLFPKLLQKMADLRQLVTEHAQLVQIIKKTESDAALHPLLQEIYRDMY
Description: (§1) Human PPAR Activation by Compound of Example 11 in Transient Transfection Study
(§2) Table 2 summarizes the results of studies performed in transfected CV-1 cells with three different lots of Compound of Example 11. […].

[2] = biological target: T2, human PPARγ (Homo sapiens, UniProt P37231); test: as above; format: cell-based
T2 construct: expressed in transfected cells; host or cells: CV-1 cells
T2 sequence (P37231 1-505): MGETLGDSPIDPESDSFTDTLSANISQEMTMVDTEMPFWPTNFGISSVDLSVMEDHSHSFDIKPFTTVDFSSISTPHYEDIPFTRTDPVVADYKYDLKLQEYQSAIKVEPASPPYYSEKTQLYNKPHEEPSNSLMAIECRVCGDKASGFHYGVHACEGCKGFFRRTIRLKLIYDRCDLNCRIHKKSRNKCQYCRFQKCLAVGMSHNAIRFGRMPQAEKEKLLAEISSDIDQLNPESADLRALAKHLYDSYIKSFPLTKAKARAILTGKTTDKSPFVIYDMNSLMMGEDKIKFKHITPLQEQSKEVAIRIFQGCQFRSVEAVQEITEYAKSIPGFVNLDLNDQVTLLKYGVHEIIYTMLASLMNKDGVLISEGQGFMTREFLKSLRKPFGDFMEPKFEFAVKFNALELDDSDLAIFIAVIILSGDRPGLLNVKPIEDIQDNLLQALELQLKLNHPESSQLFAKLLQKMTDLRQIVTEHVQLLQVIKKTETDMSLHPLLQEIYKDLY
Description: as §1, §2

[3] = biological target: T3, human PPARδ (Homo sapiens, UniProt Q03181); test: as above; format: cell-based
T3 construct: expressed in transfected cells; host or cells: CV-1 cells
T3 sequence (Q03181 1-441): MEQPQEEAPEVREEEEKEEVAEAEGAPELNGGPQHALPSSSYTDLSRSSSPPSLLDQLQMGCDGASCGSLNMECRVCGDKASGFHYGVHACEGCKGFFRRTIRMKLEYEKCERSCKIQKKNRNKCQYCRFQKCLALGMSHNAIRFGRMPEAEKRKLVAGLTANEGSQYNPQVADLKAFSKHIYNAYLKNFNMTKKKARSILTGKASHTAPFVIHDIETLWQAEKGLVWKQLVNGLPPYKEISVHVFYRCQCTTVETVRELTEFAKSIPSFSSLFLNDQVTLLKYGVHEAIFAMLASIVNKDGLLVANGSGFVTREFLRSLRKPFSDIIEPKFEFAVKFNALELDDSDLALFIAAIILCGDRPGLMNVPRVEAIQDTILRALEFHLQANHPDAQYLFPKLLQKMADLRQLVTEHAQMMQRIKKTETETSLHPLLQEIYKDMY

[4] = biological target: T4, P-glycoprotein (P-gp) (Homo sapiens, UniProt P08183); test: Effect of P-gp inhibitor verapamil on Caco-2 permeability; format: in vitro ADME
T4 construct: endogenous in cells; host or cells: Caco-2 cells
T4 sequence (P08183 whole entry): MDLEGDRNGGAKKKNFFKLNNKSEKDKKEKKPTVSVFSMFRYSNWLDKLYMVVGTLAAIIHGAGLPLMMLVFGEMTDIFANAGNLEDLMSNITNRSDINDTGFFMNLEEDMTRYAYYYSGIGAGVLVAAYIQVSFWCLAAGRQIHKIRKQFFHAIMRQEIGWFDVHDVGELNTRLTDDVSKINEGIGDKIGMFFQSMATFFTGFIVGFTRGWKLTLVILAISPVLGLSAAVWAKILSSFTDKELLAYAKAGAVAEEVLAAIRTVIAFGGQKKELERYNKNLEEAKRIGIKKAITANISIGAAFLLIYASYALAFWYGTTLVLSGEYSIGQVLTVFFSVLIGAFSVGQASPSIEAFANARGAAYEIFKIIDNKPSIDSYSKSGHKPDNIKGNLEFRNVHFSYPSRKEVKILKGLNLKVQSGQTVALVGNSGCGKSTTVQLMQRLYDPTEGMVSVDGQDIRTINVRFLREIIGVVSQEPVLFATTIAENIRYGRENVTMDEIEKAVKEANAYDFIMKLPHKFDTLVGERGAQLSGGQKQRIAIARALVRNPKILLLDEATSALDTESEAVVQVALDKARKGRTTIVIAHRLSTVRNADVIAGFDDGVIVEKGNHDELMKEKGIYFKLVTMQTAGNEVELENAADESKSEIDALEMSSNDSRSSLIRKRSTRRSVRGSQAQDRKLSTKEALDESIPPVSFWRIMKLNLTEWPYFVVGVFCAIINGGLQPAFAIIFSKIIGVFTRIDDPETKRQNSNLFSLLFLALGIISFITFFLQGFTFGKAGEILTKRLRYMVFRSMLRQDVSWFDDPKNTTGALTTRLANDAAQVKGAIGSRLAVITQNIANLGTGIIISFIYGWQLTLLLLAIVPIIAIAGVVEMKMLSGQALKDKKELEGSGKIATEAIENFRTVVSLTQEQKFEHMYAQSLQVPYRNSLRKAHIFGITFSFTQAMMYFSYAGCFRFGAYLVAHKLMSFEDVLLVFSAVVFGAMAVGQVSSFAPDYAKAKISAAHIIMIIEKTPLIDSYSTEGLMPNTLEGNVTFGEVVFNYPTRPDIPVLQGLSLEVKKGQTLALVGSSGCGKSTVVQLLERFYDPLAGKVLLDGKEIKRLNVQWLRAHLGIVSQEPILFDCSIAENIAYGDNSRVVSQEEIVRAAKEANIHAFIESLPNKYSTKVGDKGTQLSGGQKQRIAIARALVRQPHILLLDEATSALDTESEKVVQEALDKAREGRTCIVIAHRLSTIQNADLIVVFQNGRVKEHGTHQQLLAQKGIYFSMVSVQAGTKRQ
Description: Example 18: Effect of P-gp Inhibitor Verapamil on Caco-2 Permeability of Compound of Example 11

[5] = Rat brain penetrance pharmacokinetics after oral dosing; format: in vivo, male Sprague-Dawley rats; details: for B/P Ratio / Brain Tissue Cone. / Plasma Conc.: individual rats; for Average (B/P Ratio): mean of 3 rats
Description: Determination of Brain to Plasma Ratios for Compound of Example 11
For compounds of the present disclosure to be effective in treating cognitive impairment, it must have an ability to cross the BBB and penetrate the brain. […] The plasma exposure as measured by AUClast was 9569±1190 hr*ng/mL.

CCc1oc(-c2ccc(OC)cc2)nc1CCOc1ccc2c(c1)CC[C@H]2CC(=O)[O-].[Na+] [Example 11, Sodium (S)-2-(5-(2-(5-ethyl-2-(4-methoxyphenyl)oxazol-4-yl)ethoxy)-2,3-dihydro-1H-inden-1-yl)acetate]
Peak effect PPARα [1]: 1.87 | Emax ([1]; CV-1, average of three lots, read-out: Average % maximal response PPARα): 49% | Average % maximal response PPARα ([1]; average of three lots): significantly reduced | Peak effect PPARγ [2]: 29.49 | Emax ([2]; CV-1, read-out: Average % maximal response PPARγ): 74% | Peak effect PPARδ [3]: 17.68 | greater potency in activating human PPARδ over human PPARγ [3]: 15 fold | selectivity over the human PPAR alpha subtype [3]: ~30 fold | Emax ([3]; CV-1, read-out: Average % maximal response PPARδ): 76% | substrate for P-gp [4]: not a substrate | Brain/Plasma ratio ([5]; 1 hour, rat, oral 3 mg/kg): 0.361±0.142 | B/P Ratio ([5]; 1.0 hr): 0.36 and 0.51 and 0.22 | Brain Tissue Cone. ([5]; 1.0 hr): 161 ng/g and 101 ng/g and 226 ng/g | Plasma Conc. ([5]; 1.0 hr): 453 ng/mL and 199 ng/mL and 1020 ng/mL | Average (B/P Ratio) ([5]; 1.0 hr): 0.361 | Brain/Plasma ratio ([5]; 3 hours, rat, oral 3 mg/kg): 0.220±0.033 | B/P Ratio ([5]; 3.0 hr): 0.26 and 0.21 and 0.19 | Brain Tissue Cone. ([5]; 3.0 hr): 234 ng/g and 269 ng/g and 274 ng/g | Plasma Conc. ([5]; 3.0 hr): 1270 ng/mL and 1430 ng/mL | Average (B/P Ratio) ([5]; 3.0 hr): 0.220 | Brain/Plasma ratio ([5]; 5 hours, rat, oral 3 mg/kg): 0.171±0.011 | B/P Ratio ([5]; 5.0 hr): 0.17 and 0.18 and 0.16 | Brain Tissue Cone. ([5]; 5.0 hr): 208 ng/g and 247 ng/g and 333 ng/g | Plasma Conc. ([5]; 5.0 hr): 1260 ng/mL and 1340 ng/mL and 2040 ng/mL | Average (B/P Ratio) ([5]; 5.0 hr): 0.171 | Brain/Plasma ratio ([5]; 7 hours, rat, oral 3 mg/kg): 0.328±0.154 | B/P Ratio ([5]; 7.0 hr): 0.16 and 0.35 and 0.47 | Brain Tissue Cone. ([5]; 7.0 hr): 203 ng/g and 216 ng/g | Plasma Conc. ([5]; 7.0 hr): 1240 ng/mL and 368 ng/mL and 462 ng/mL | Average (B/P Ratio) ([5]; 7.0 hr): 0.328 | Brain/Plasma ratio ([5]; 12 hours, rat, oral 3 mg/kg): 0.350±0.077 | B/P Ratio ([5]; 12.0 hr): 0.30 and 0.44 and 0.31 | Brain Tissue Cone. ([5]; 12.0 hr): 104 ng/g and 114 ng/g and 117 ng/g | Plasma Conc. ([5]; 12.0 hr): 345 ng/mL and 259 ng/mL and 377 ng/mL | Average (B/P Ratio) ([5]; 12.0 hr): 0.350 | average plasma half-life ([5]; rat, oral 3 mg/kg): 3.33 h | plasma Cmax ([5]; rat, oral 3 mg/kg): 1547 ± 248 ng/mL | plasma exposure AUClast ([5]; rat, oral 3 mg/kg): 9569 ± 1190 ng·h/mL
